Values of other authors as cited in US20250387420A1, “Prevention of Nausea and Vomiting from Antibody-Drug Conjugates and other Long-Acting Emetogenics” (Helsinn Healthcare SA, priority 2024, published 2025).

Key:
NK1 receptor = NK1 receptor (Homo sapiens, UniProt P25103)
[1] = 48 hours after a single 300 mg oral netupitant dose; Gilmore and Bernareggi 2019
[2] = system: patients receiving cisplatin-based chemotherapy; conditions: 168 hours following highly emetogenic cisplatin-based therapy

NK1 receptor, sequence (P25103 whole entry): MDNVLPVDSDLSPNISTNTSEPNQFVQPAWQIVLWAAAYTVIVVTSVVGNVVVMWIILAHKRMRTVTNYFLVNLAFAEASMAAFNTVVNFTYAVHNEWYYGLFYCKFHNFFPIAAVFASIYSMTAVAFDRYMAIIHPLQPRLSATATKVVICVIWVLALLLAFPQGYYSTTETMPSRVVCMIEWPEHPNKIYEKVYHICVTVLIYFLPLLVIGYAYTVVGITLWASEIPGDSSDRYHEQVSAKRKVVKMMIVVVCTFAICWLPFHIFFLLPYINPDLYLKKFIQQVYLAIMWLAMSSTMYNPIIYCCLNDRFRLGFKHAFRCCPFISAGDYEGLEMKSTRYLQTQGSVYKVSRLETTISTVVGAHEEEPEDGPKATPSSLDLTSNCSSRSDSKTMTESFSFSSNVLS

Row | NK1 receptor occupancy rates necessary for efficacy (NK1 receptor; Bergstrom et al. 2004) [%] | plasma concentration at which 90% receptor occupancy is achieved (NK1 receptor; Spinelli et al. 2013) [ng/mL] | plasma concentration [1] | SMILES | comparative efficacy versus aprepitant [2]
1 | > 90 | – | – | C[C@@H](O[C@H]1OCCN(Cc2n[nH]c(=O)[nH]2)[C@H]1c1ccc(F)cc1)c1cc(C(F)(F)F)cc(C(F)(F)F)c1 [aprepitant] | –
2 | – | 225 | below 100 ng/mL | Cc1ccccc1-c1cc(N2CCN(C)CC2)ncc1N(C)C(=O)C(C)(C)c1cc(C(F)(F)F)cc(C(F)(F)F)c1 [netupitant] | favorable comparative efficacy to aprepitant
